Results as given in PMC10064330, “Reversible Dual-Covalent Molecular Locking of the 14-3-3/ERRγ Protein–Protein Interaction as a Molecular Glue Drug Discovery Approach” (Journal of the American Chemical Society, 2023).

Target: T1, 14-3-3γ/PKR complex (Homo sapiens, UniProt P61981)
T1 construct: made in house; host or cells: E. coli NiCo21 (DE3)
T1 sequence (P61981 1-247): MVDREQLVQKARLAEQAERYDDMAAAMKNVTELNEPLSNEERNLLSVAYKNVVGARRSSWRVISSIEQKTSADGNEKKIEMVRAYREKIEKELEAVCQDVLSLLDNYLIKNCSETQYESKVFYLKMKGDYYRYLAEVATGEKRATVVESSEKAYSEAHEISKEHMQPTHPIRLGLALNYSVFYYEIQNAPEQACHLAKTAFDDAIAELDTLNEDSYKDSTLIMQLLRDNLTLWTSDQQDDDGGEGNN
Assay: FA / TD-FA selectivity screen, PKR client peptide
Assay type: binding
Conditions: 100 μM compound
Experimental: Drugging the hub protein 14-3-3 raises the challenge of selectivity, given that 14-3-3 binds several hundred phosphoprotein partners (Figure 4a).[54] We hypothesized that the interplay of chemical reactivity, the topology, and functionality of the composite binding pocket shaped by 14-3-3 and the interaction partner drives selective stabilization of the 14-3-3/ERRγ complex.[53] To validate selectivity, molecular locks 5 and 10 were tested against a panel of nine 14-3-3 client peptides in an FA assay, and the SF100 was determined for each 14-3-3 PPI (Figure 4b and Figures S18–S20). This client panel contained a diverse representation of 14-3-3 binding proteins, differing for example in size and hydrophobicity of the +1 amino acid. Importantly, clients PKR and RND3, each containing a +1 Cys, were included in the panel.
To further assess off-target reactivity to +1 Cys-containing peptides, fragment 1, locks 5 and 10 were also screened against PKR and RND3 in the TD-FA assay.
Figure S20. KD and SF100 plot – selectivity screen. […]
nine different client peptides in presence of DMSO (negative control) or 100 µM of compound 1, 5 or 10 (based on binding curves in Figure S19). Also a bar plot representation of stabilization factor (SF100) of compounds 1, 5 and 10 for each of these peptides (bottom plot).
(1 picture or pasted object on this page, not shown here)
Experimental Section Biophysical Assays
14-3-3γ protein expression (FA, TSA, MS assays)
A pPROEX HTb expression vector encoding the human 14-3-3 protein gamma (14-3-3γ) with a N-terminal his6-tag was transformed by heat shock into NiCo21 (DE3) competent cells. Single colonies were cultured in 50 mL LB medium (100 µg/mL ampicillin). After overnight incubation at 37 °C, cultures were transferred to 2 L TB media (100 µg/mL ampicillin, 1 mM MgCl2) and incubated at 37 °C until an OD600 nm of 0.8 -1.2 was reached. […] Finally, the protein was concentrated to ∼60 mg/mL, analyzed Q-Tof LC/MS, and aliquots were flash-frozen for storage at −80 °C. […]

For CN(C)CCSSCCN(C)C(=O)c1cccc(F)c1 [compound 1, reference compound], the “stabilization of the PKR complex” value was “no stabilization”.

For CN(C)CCSSCCN(C)C(=O)c1ccc(C=O)c(F)c1 [compound 5], the “stabilization of the PKR complex” value was “no stabilization”.

For CN(C)CCSSCCN(C)C(=O)c1cc(Br)cc(C=O)c1 [compound 10], the “stabilization of the PKR complex” value was “no stabilization”.
